These results are taken from PMC8875489, “Pharmaceutical and Safety Profile Evaluation of Novel Selenocompounds with Noteworthy Anticancer Activity” (Pharmaceutics, 2022).

“Also recorded” adds a separate entry of the source.

Data set [1] relates to human liver microsomes (HLMs). In words: In vitro microsomal biotransformation test with TRIS buffer and solvent controls (LC-MS/MS). The data set is classed as in vitro ADME. Particulars: for stability in DMSO: organic solvent, LC-MS/MS. As to the method:
The assessment of the metabolites generated in the in vitro microsomal biotransformation of the selenoester EDA-71 in liver microsomes was performed following a previously described protocol with minor modifications. Only this compound was evaluated because it combined an optimal solubility to be analyzed in this procedure with very significant activity. The protocol is provided in full detail in the Supplementary Materials. Briefly, the compound was exposed to microsomes for 2 h, and the mixture was later analyzed with LC–MS/MS to detect the generated metabolites.
In the next step of the research, a biochemical in vitro method with the use of human liver microsomes (HLMs) was applied to determine the metabolic activity of the compound EDA-71. This human liver microsomal model provides all the enzymes required for the phase I metabolism reactions (hydrolysis, oxidation, and reduction). Moreover, it is also possible, in certain conditions following the addition of all necessary cofactors, to conduct metabolism II phase reactions (glutathione transferase and N-acetyltransferase enzymatic reactions). In the drug discovery process, the microsomal is a standard in vitro method for the metabolism evaluation. Additionally, this assay can predict the biotransformation kinetics and intrinsic clearance of new derivatives. Finally, these biotransformation processes can be easily monitored with LC–MS/MS.
The NADPH-regenerating system, which contained a phosphate buffer (pH = 7.4; NADP^+, glucose-6-phosphate, and glucose-6-phosphate dehydrogenase), was used. The biotransformation process was monitored with the LC–MS/MS method at the end of the procedure at 2 h after the incubation.
This experimental fact prevented the detailed analysis of metabolic stability. […] Thus, the tested compounds were dissolved in DMSO immediately before the experiment to minimize the degradation risk. […]
1.4. In vitro metabolic stability evaluation in microsomes
1.4.1. Microsomal metabolic stability protocol
For the microsomal stability assay, the selenoester EDA-71 was selected. Before the experimental procedure, the HLMs and solutions necessary for preparing the regenera-tion fraction were stored at -80° C and TRIS buffer at 4° C. The NADP+ regeneration frac-tion was prepared freshly, at the day of the experiment.
1.4.2. Preparation of the working solutions and microsomal regeneration fraction In the first step of the experiment, after selection of the compounds, the 1000 μM working solution was prepared in the TRIS buffer (0.1 M, pH 7.5) from the 10 mM stocks in DMSO. Then, the fresh regeneration fraction was prepared from the 220 μL TRIS buffer, 25 μL of the “A” solution and 5 μL of the “B” solution.
1.4.3. Human liver microsomes and solvent controls
Further, two controls have been prepared: solvent control (142 μL of TRIS buffer with 8 μL of HLMs, 50 μL of the regeneration fraction and 200 μL of the pure methanol) and tested compound control (190 μL of TRIS buffer with 10 μL of the 1 mM tested compound solution and 200 μL of methanol). The biotransformation was carried out at the precise concentration of 1 mg/mL of HLMs.
1.4.4. Biotransformation performance
In the next step 132 μL of TRIS buffer were added into a sterile eppendorf. After that, 10 μL of 1000 μM solution of tested compound in TRIS buffer were added to the above-mentioned eppendorf and then, 8 μL of HLMs. The final concentration of tested com-pound was 50 μM. After gently mixing on the vortex, reaction mixture was preincubated for 5 minutes at 37° C on the thermoblock. Then, in the further step, the reaction was ini-tiated by adding 50 μL of the NADP+ regeneration fraction and incubated at 37° C for 2 h.
After that time, to terminate the reaction, the 200 μL of pure, cold methanol (for LC-MS/MS analysis) was added to probe, which contained the tested compound with HLMs.
Moreover, the same amount of cold methanol was added into the control sample with […]

Data set [2] deals with Salmonella Typhimurium TA100 strain. In words: Reference experiment: impact on Salmonella Typhimurium growth (OD600). The class given is cell-based, Salmonella enterica serovar Typhimurium. Particulars: 1 and 10 µM, 20 h, 37 °C. As to the method:
Therefore, a reference experiment with 20 h of incubation at constant temperature conditions (37 °C) was performed in order to determine the effect of the tested compounds on the growth of the Salmonella Typhimurium used in the Ames test. […] Therefore, this method could be successfully applied to determine the safety profile of the tested derivatives.
it indicated the occurrence of cytotoxic events.
Salmonella Typhimurium growth
microplate assay. During the experiment, Salmonella Typhimurium TA100 strain was cul-
At the day of the experiment,
tions of 25 μM and 250 μM) respectively. The final compound and mutagenic agent con-
References in Supplementary (same numeration than in manuscript)
Appl Biochem Biotechnol, 2018, 184(1), 124-139.
Karczewska, E.; Kieć-Kononowicz, K.; Handzlik, J.; Jacob, C. Pronounced activity of aromatic selenocyanates against multidrug
Chem Biol Drug Res, 2017, 90(6), 1295-1306.
Drug Des Devel Ther, 2016,
icity of Environmental Samples. Environ Mol Mutagen, 2010, 51(1), 31-38.
stranded DNA is characterized by guanine to pyrimidine transversions. Nucleic Acids Res, 1992, 20(6), 1283-1287.

Consider `C[Se]C(=O)c1ccc(C(=O)[Se]C)s1` [EDA-122, Se,Se-dimethyl thiophene-2,5-bis(carboselenoate)], for which, in data set [1], the “stability in DMSO” value is “stable”.
For the compound `O=C1[Se]C(=O)c2ccccc21` [EDA-A6, benzo[c]selenophene-1,3-dione], the “stability in DMSO” value in data set [1] is “stable”.
As for `C[Se]C(=O)c1ccc(C(=O)[Se]C)cc1` [EDA-109, Se,Se-dimethyl benzene-1,4-bis(carboselenoate)], in data set [2], the “effect on the growth of Salmonella Typhimurium” value is reported as “stimulating effect on the growth”.
In the case of `C[Se]C(=O)c1cccc(C(=O)[Se]C)n1` [EDA-119, Se,Se-dimethyl pyridine-2,6-bis(carboselenoate)], the “stability in DMSO” value in data set [1] is on record as “stable”.
With `CC(=O)C[Se]C(=O)c1ccc(Cl)cc1` [EDA-71, Se-(2-oxopropyl) 4-chlorobenzoselenoate], the “stability in TRIS buffer and LC-MS/MS analysis conditions” value in data set [1] (TRIS buffer pH = 7.4, control of microsomal assay) is recorded as “may not be stable; also recorded: unstable”. Besides, in data set [1], the “stability in DMSO” value was “stable”.
As to `COC(=O)C[Se]C(=O)c1cc(OC)cc(OC)c1` [EDA-58, methyl 2-((3,5-dimethoxybenzoyl)selanyl)acetate], the “stability in DMSO” value in data set [1] is listed as “stable”.
